Columns and labels:
[1] = based on existing biological data; cited from earlier work
[2] = administered to human beings; cited from earlier work
[3] = molecular target: T1, Rat Liver 3-hydroxy-3-methylglutarylcoenzyme A Reductase (Rattus norvegicus, UniProt P51639); test: Assay of HMGCoA reductase (rat liver microsomes), in vitro; assay type: biochemical; conditions: 20 min, 37° C., DMSO control 652, none 1254
T1 construct: rat liver microsome (75 μg protein); from tissue; host or cells: rat liver microsomes
T1 sequence (P51639 1-887): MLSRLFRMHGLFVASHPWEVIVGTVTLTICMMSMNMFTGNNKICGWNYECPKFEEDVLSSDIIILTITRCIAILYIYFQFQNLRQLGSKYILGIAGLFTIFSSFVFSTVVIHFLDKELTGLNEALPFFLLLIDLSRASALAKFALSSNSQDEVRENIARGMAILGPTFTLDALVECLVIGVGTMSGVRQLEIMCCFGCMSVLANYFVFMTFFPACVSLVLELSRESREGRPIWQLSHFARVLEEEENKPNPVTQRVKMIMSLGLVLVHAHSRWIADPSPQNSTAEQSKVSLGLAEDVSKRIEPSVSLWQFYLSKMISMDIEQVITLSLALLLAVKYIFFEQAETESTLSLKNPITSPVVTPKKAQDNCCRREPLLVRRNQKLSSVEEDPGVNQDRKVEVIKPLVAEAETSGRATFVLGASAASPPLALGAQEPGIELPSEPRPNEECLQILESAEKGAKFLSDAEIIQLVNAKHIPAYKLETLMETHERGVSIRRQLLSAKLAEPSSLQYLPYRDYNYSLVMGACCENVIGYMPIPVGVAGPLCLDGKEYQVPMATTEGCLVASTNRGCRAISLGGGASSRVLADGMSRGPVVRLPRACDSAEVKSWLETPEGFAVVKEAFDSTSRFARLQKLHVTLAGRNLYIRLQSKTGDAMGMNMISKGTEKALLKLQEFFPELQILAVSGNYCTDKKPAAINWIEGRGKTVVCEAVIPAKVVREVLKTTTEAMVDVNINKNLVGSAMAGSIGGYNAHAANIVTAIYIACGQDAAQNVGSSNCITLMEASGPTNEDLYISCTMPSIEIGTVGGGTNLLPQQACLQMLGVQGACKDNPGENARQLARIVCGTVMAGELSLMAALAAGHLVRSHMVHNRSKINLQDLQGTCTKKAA
Protocol: Ethylcompactin and mevinolin were dissolved in DMSO. Aliquots (10 μl) of each were incubated with 50 μl of 50 mM Pot. phosphate pH 7.4, 70 mM KCl, 30 mM EDTA, 10 mM DTT for 30 min at 37° C. to delactonize the compounds. Control incubations were done with 10 μL DMSO.
Assay of HMGCoA reductase was carried out as described by George and Ramasarma, [George R., Ramasarma, T., Biochem. J. (1977) 162:493-499]. At the end of 30 min, incubation for […], rat liver microsome (75 μg protein) were added to each tube along with glucose-6-phosphate (577 μM) glucose-6-phosphate dehydrogenase (0.05 unit/assay) and MADPH ([…]) and incubated for an additional 10 min at 37° C.
HMGCoA reductase reaction was initiated by the additon of 3-^14 C-HMGCoA ([…], final) and carried out for 20 min at 37° C. in a total volume of 100 μl. The reaction was terminated by the addition of 5N HCl (25 μl) containing known amounts of ^3 -H-Mevalonolactone as internal standard and non-radioactive mevalonolactone (0.6 mg/assay) as carrier. Mevalonic acid formed in the assay was allowed to lactonize by incubating the mixture for 30 min at 37° C. The precipitated protein was removed by centrifugation in a microfuge. An aliquot of the supernatant (40 μl) was applied on silica gel G (0.25 mm thickness) plates and the chromatogram developed with Acetone:Benzene (3:2). The spot corresponding to the mevalonolactone (Rf 0.5) was scraped off and the radioactivity estimated by liquid scintillation counting. Mevalonic acid formed was calcualted from the recovery of internal standard. Microsomal protein was estimated by the method of Lowry [J. Biol. Chem. (1951) 193:265-275 ] after precipitation according to Bensadoun and Weinstein [Anal. Biochem. (1976) 70:241-250]. The specific activity of HMGCoA reductase is expressed as p moles of mevalonic acid formed per minute per mg of microsomal protein.

[4] = 100 nM in assay (in 10 μl DMSO)

Structure (SMILES)	activity in lowering LDL cholesterol levels as compared to Compactin [1]	concentration in the blood of LDL cholesterol [2]	HMGCoA Reductase Activity ([3]; 1 nM in assay (in 10 μl DMSO))	HMGCoA Reductase Activity [3, 4]	HMGCoA Reductase Activity ([3]; 1 μM in assay (in 10 μl DMSO))	HMGCoA Reductase Activity ([3]; 10 μM in assay (in 10 μl DMSO))
CC[C@H](C)C(=O)O[C@H]1C[C@@H](C)C=C2C=C[C@H](C)[C@H](CC[C@@H]3C[C@@H](O)CC(=O)O3)[C@H]21 [Mevinolin, (+)-Mevinolin]	several times more active	reduced	609 pmol Mevalonate formed/min/mg	303 pmol Mevalonate formed/min/mg	113 pmol Mevalonate formed/min/mg	52 pmol Mevalonate formed/min/mg
CC[C@H]1C=C2C=C[C@H](C)[C@H](CC[C@@H]3C[C@@H](O)CC(=O)O3)[C@H]2[C@@H](OC(=O)[C@@H](C)CC)C1 [Ethyl Compactin, (+)-3-Ethylcompactin]			730 pmol Mevalonate formed/min/mg	361 pmol Mevalonate formed/min/mg	182 pmol Mevalonate formed/min/mg	20 pmol Mevalonate formed/min/mg
CC[C@H](C)C(=O)O[C@H]1CCC=C2C=C[C@H](C)[C@H](CC[C@@H]3C[C@@H](O)CC(=O)O3)[C@H]21 [Compactin, (+)-Compactin]		reduced				

— patent US5072002A, “Synthesis of cholesterol-lowering agents” (The Governors of the University of Alberta, priority 1989, dated 1991)
